Results on 15 compounds are retold here after ChEMBL document CHEMBL1137893, “Active site inhibitors of HCV NS5B polymerase. The development and pharmacophore of 2-thienyl-5,6-dihydroxypyrimidine-4-carboxylic acid” (Bioorg Med Chem Lett, 2004).

The first assay deals with RNA-directed RNA polymerase (Hepacivirus hominis, UniProt O39930). Kind of assay: inhibitory concentration against RNA dependent RNA polymerase Nonstructural protein 5B of hepatitis C virus.
Sequence of RNA-directed RNA polymerase (O39930 whole entry): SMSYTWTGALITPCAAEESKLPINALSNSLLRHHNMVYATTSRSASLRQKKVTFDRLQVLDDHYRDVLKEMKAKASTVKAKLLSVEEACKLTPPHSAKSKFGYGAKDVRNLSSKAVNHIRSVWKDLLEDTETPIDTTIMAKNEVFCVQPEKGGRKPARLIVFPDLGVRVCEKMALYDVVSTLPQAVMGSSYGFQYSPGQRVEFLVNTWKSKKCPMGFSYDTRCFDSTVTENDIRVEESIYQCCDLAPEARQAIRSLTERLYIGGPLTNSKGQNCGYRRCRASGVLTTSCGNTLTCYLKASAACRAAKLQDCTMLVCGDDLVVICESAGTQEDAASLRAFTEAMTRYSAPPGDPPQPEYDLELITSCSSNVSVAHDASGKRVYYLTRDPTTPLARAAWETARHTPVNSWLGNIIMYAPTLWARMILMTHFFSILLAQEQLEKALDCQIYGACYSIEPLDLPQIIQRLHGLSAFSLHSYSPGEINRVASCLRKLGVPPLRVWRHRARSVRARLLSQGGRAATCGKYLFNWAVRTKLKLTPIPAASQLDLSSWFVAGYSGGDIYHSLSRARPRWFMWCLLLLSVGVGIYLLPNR
One may read the IC50 as the concentration that inhibits the measured activity by half. Compound `CS(=O)(=O)c1nc(-c2cccs2)nc(C(=O)O)c1O` returned an IC50 of 49 µM.

Consider `O=C(O)C(=O)/C=C(\O)c1ccccc1`, for which 5.7 µM corresponded to half-maximal inhibition (IC50).

With `Cn1c(-c2cccs2)nc(C(=O)O)c(O)c1=O`, it took 4.2 µM to reach half-maximal inhibition (IC50).

In turn, `O=C(NS(=O)(=O)C(F)(F)F)c1nc(-c2cccs2)[nH]c(=O)c1O` had a 50% inhibitory concentration (IC50) of 6.2 µM.

`O=C(O)c1nc(-c2ccccc2)nc(O)c1O`: the concentration for half-maximal inhibition (IC50) was determined as 30 µM.

Consider `COc1nc(-c2cccs2)nc(C(=O)O)c1O`, for which the IC50 amounted to 50 µM. This IC50 lies about 1.7-fold higher than the previous one.

Compound `O=C(O)c1nc(-c2cccs2)nc(O)c1O` registered an IC50 of 2.6 µM.

The target in another assay is RNA-directed RNA polymerase (Hepacivirus hominis) (UniProt O39930). Kind of assay: Percentage inhibition of RNA dependent RNA polymerase Nonstructural protein 5B of hepatitis C virus at 50 uM.
Sequence of RNA-directed RNA polymerase (Hepacivirus hominis) (O39930 1-591): as the sequence (O39930 whole entry) above
Broadly, the inhibition is how much of the control response was suppressed. Higher therefore signals strong suppression. On to `O=C(O)c1nc(-c2ccccn2)nc(O)c1O`, for which the inhibition is less than 30%.

On to `O=C(O)c1nc(-c2cccs2)ncc1O`, for which the inhibition is less than 30%.

The compound `O=C(O)c1[nH]c(-c2cccs2)nc2ncnc1-2` had an inhibition of less than 30%.

Compound `COC(=O)c1nc(-c2cccs2)nc(O)c1O` showed an inhibition of less than 30%.

As for `O=C(NS(=O)(=O)Cc1ccccc1)c1nc(-c2cccs2)nc(O)c1O`, the inhibition was less than 30%.

`CS(=O)(=O)Nc1nc(-c2cccs2)nc(C(=O)O)c1O` gave an inhibition of less than 30%.

Compound `Oc1nc(-c2cccs2)nc(-c2nn[nH]n2)c1O` yielded an inhibition of less than 30%.

Compound `O=P(O)(O)c1nc(-c2cccs2)nc(O)c1O` showed an inhibition of less than 30%.
